In one experiment the test system is caspase 3. As to the kind of experiment: Western blot of caspase 3 after UV irradiation (Example 2). The experiment is classed as cell-based, monkey. Particulars: UV 100 J/m^2, 9 hours. As for the experimental part:
1×10^5 cultured monkey corneal endothelial cells were seeded on a 12-well plate coated with FNC Coating Mix and were cultured until reaching confluence under the condition of 5% CO2 at 37° C. Dulbecco's Modified Eagle Medium (DMEM) (Gibco, 12320-032)+10% FBS+1% Penicillin-Streptomycin (nacalai tesque, 26252-94) was used as the medium.
Each inhibitor was added at the above concentration. The cells were incubated for 18 hours under the condition of 5% CO2 at 37° C. The control group and the UV irradiation group were supplemented with a solvent of each reagent, i.e., DMSO (Dimethyl Sulfoxide, Sterile-filtered) (nacalai tesque, 13408-64). Gibco DMEM+1% P/S (penicillin-streptomycin mixture) was used as the medium.
The cell supernatant was then removed, and the cells were irradiated with UV (100 J/m^2). After irradiation, media containing each inhibitor were added to the cells again. The cells were cultured for 9 hours.
The cell morphology was observed under a phase difference microscope. After observation, western blot was performed on proteins by the following procedure.
The medium was collected on ice to collect free and dead cells. The solution from washing the cells twice with 1×PBS (−) was also collected. 800 g was centrifuged at 4° C. for 5 minutes. The supernatant was discarded to obtain precipitates. The washed cells were supplemented with a protein extraction buffer (RIPA; 50 mM Tris-HCl (pH 7.4), 150 mM NaCl, 1 mM EDTA, 0.1% SDS, 0.5% DOC, 1% NP-40) on ice to extract proteins. The precipitates from centrifuging the free and dead cells were also subsequently suspended together for extraction. The collected solution was pulverized three times for 30 seconds in cold water with a sonication device (BIORUPTOR, TOSHO DENKI) and centrifuged for 10 min at 4° C. at 15000 rpm to collect the supernatant of proteins.
8 μg of the extracted protein was separated by SDS-PAGE and transferred onto a nitrocellulose membrane. A rabbit anti-caspase 3 antibody (Cell Signaling, 9662), rabbit anti-PARP antibody (Cell Signaling, 9542), and mouse anti-GAPDH antibody (MBL, M171-3) were used as the primary antibodies. A peroxidase-labeled anti-rabbit antibody and anti-mouse antibody (GE Healthcare Biosciences, NA934V, NA931V) were used as the secondary antibodies. For the primary antibodies, rabbit anti-caspase 3 antibody and rabbit anti-PARP antibody: 1000-fold dilution and mouse anti-GAPDH antibody: 3000-fold dilution, while the secondary antibody was diluted 5000-fold. Chemi Lumi ONE Ultra (nacalai tesque, 11644-40) was used for detection. The detected band strength was analyzed with a lumino image analyzer LAS-4000 mini (Fuji Film) and ImageQuant™ software (GE Healthcare).

For experiment [1], the system named is immobilized Fuchs' endothelial corneal dystrophy patient derived cells (iFECD). As to the kind of experiment: Cell damage in iFECD due to TGF-β2, phase difference microscope (Example 9). The experiment is classed as cell-based, human. The settings on record: TGF-β2 10 ng/mL, inhibitor 10 μM, 24 hours. As for the experimental part:
1.2×10^5 iFECDs were seeded on a 12-well plate coated without coating and were cultured for 24 hours under the condition of 5% CO2 at 37° C. Dulbecco's Modified Eagle Medium (nacalai tesque, 26252-94)+10% FBS (Biological Industries/04-001-1A)+1% Penicillin-Streptomycin (nacalai tesque, 26252-94) was used as the medium.
After 24 hours from seeding, each inhibitor was added at a concentration of 10 μM and the cells were incubated for 24 hours under the condition of 5% CO2 at 37° C. The medium was exchanged for the control group and the TGF-β2 group. DMEM+2% FBS+1% P/S was used as the medium.
SB431542 (Wako Pure Chemical Industries, Ltd./192-16541); Z-VAD-FMK (Peptide Institute/3188-v); Z-VD-FMK (isomer mixture) (Wako Pure Chemical Industries, Ltd./262-02061); and emricasan (CHEMSCENE, LLC/CS-0599).
Next, TGF-β2 (manufacturer: R&D Systems, Inc., distributor: Wako Pure Chemical Industries, Ltd./manufacturer codes 302-B2-002, 302-B2-010, distributor codes: 553-62881, 5-59-62883) (10 ng/mL) alone, or both TGF-β2 (10 ng/mL) and each inhibitor (10 μM) were added. After 24 hours, cell morphology and programmed cell death were observed using a phase difference microscope.

Another experiment concerns fibronectin. As to the kind of experiment: Fibronectin production due to TGF-β2 in iFECD, immunostaining and western blot (Example 17). Type of experiment: cell-based, human. Particulars: TGF-β2 10 ng/mL, inhibitor 10 μM, 24 hours. How it is done: Round glass was placed on a 24-well plate, disinfected for 5 minutes with ethanol, and coated with laminin-511 E8 Fragment. Then, iFECDs were seeded at 4.0×10^5 each and cultured at 37° C. (5% CO2) until reaching 60 to 70% confluence. Dulbecco's Modified Eagle Medium (DMEM, nacalai tesque, 08456-36)+10% FBS (Thermo Fisher Scientific, S1820-500)+1% penicillin-streptomycin (nacalai tesque, 26252-94) was used as the medium. SB431542 (Wako Pure Chemical Industries, Ltd./192-16541), Z-VD-FMK (isomer mixture) (Wako Pure Chemical Industries, Ltd./262-02061), and emricasan (CHEMSCENE, LLC/CS-0599) were then added at a concentration of 10 μM, and the cells were incubated for 24 hours. The medium was exchanged in the control group and the TFG-β2 supplemented group. DMEM+2% FBS+1% P/S was used as the medium. TGF-β2 alone (10 ng/mL), or both TGF-β2 (10 ng/mL) and each inhibitor (10 μM) were then added. After 24 hours, immunostaining was performed by the following method.
Cells after 24 hours form stimulation were washed with PBS (−) and immobilized with 4% PFA for 10 minutes at room temperature. 0.5% Triton was used for 5 minutes for permeation treatment, and 1% BSA was used for blocking for 1 hour. […] A confocal microscope (Leica Microsystems CMS GmcH Am Friendensplatz 3 68165 Mannheim, Germany) was used to observe fluorescence. […]

In another experiment the test system is p-Smad2. The experiment can be described thus: p-Smad2 western blot in iFECD with TGF-β2 (Example 17). Type of experiment: cell-based, human. Particulars: TGF-β2 10 ng/mL, inhibitor 10 μM, 24 hours. How it is done:
IFECDs were seeded at 1.0×10^5 each on a 12-well plate and cultured at 37° C. (5% CO2) until reaching 60 to 70% confluence. Dulbecco's Modified Eagle Medium (DMEM, nacalai tesque, 08456-36)+10% FBS (Thermo Fisher Scientific, S1820-500)+1% penicillin-streptomycin (nacalai tesque, 26252-94) was used as the medium. SB431542 (Wako Pure Chemical Industries, Ltd./192-16541), Z-VD-FMK (isomer mixture) (Wako Pure Chemical Industries, Ltd./262-02061), and emricasan (CHEMSCENE, LLC/CS-0599) were then added at a concentration of 10 μM, and the cells were incubated for 24 hours. The medium was exchanged in the control group and the TFG-β2 supplemented group. DMEM+2% FBS+1% P/S was used as the medium. TGF-β2 alone (10 ng/mL), or both TGF-β2 (10 ng/mL) and each inhibitor (10 μm) were added. After 24 hours, proteins were collected by the following method.
The medium was collected on ice to collect free and dead cells. The solution from washing the cells twice with 1×PBS (−) was also collected, and was centrifuged at 4° C. at 800×g for 15 minutes. The supernatant was discarded to obtain precipitates. […]
Chemi Lumi ONE Ultra (nacalai tesque, 11644-40) was used for detection. The detected band strength was analyzed with Amersham™ Imager 600 (GE Healthcare).

The test system of another experiment is rabbit cornea. The experiment can be described thus: Cornea preservation using rabbit cornea in Optisol-GS (Example 11). The experiment is classed as cell-based. The settings on record: 2 weeks of preservation at 4° C., 10 μM in Optisol-GS. As for the experimental part:
Rabbit eye balls after 0 to 24 hours from euthanasia were used in the experiment. Under a stereoscopic microscope, the sclera was excised using spring scissors along the corneal limbus, and the lens and iris were removed to prepare a sclerocornea fragment. The sclerocornea fragment was divided into two pieces as the control group and emricasan supplemented groups. After dividing the cornea, the control group was left standing in DMSO supplemented Optisol-GS® (Bausch & Lomb) and the caspase inhibitor supplemented groups were left standing in Optisol-GS® supplemented with emricasan for 2 weeks at 4° C.
After washing the sclerocornea fragment with PBS (−), the fragment was immobilized with 4% formaldehyde for 10 minutes at room temperature (RT) and incubated for 60 minutes with 1% bovine serum albumin (BSA). Antibodies to N-cadherin (BD Bioscience) and ZO-1 (Zymed Laboratories) were used at 1:300 dilution. For secondary antibodies, Alexa Fluor® 488 labeled goat anti-mouse IgG (Life Technologies, A11009) was used at a dilution of 1:1000. A 1:400 dilution of phalloidin (Life Technologies) 546 was used for actin staining. […] Fluorescence was observed using a confocal microscope (TCS SP2 AOBS; Leica Microsystems, Wetzlar Germany). Cells found to have actin contractile rings under a fluorescence microscope were counted to measure the ratio.

The record followed here is patent US11446263B2, “Caspase inhibitor-containing drug for treating or preventing disorders caused by TGF-β, and applications thereof” (The Doshisha, priority 2015, dated 2022).

For the compound `CC(C)[C@@]1(C(=O)N[C@H]2CC(=O)O[C@]2(O)CF)CC(c2nccc3ccccc23)=NO1` [nivocasan, (R)—N-((2S,3S)-2-(fluoromethyl)-2-hydroxy-5-oxotetrahydrofuran-3-yl)-5-isopropyl-1-3-(isoquinoline-1-yl)-4,5-dihydroisoxazole-5-carboxamide], the “effect of suppressing caspase 3” value in the experiment with caspase 3 (concentration of 100 μM) is given as “observed”.

Regarding `NC(=O)c1ccc(-c2nc(-c3ccc4c(c3)OCO4)c(-c3ccccn3)[nH]2)cc1` [SB431542], in experiment [1], the programmed cell death result was “suppressed”. In the experiment with fibronectin, the “expression / overexpression of fibronectin” value was “suppressed”. Also, the “phosphorylated Smad2 (p-Smad2)” value in the experiment on p-Smad2 is reported as “not found”.

With `C[C@H](NC(=O)C(=O)Nc1ccccc1C(C)(C)C)C(=O)N[C@@H](CC(=O)O)C(=O)COc1c(F)c(F)cc(F)c1F` [emricasan, 3-[2-[(2-tert-butyl-phenylaminooxalyl)-amino]-propionylamino]-4-oxo-5-(2,3,5,6-tetrafluoro-phenoxy)-pentanoic acid], the “inactive form cleaved caspase 3 of about 19 kDa” value is “hardly observed” in the experiment on caspase 3 (addition of 1 and 3 μM); “not observed” in the experiment with caspase 3 (other concentrations (10, 30, 100 μM)). Further, the “active form cleaved caspase 3 of about 17 kDa” value with caspase 3 (all tested concentrations) is recorded as “not observed”. Moreover, the actin contractile rings result with rabbit cornea is “significantly suppressed”. In addition, the cell damage result in the experiment with rabbit cornea is “hardly any cell damage”. Besides, the “expression / overexpression of fibronectin” value in the experiment with fibronectin is “suppressed”. Besides, the “phosphorylated Smad2 (p-Smad2)” value with p-Smad2 is on record as “found”.
